Patent US20140314847A1, “CONTROLLED RELEASE PHARMACEUTICAL COMPOSITIONS WITH IMPROVED BIOAVAILABILILTY” (priority 2004, published 2014)

Assay: In vitro dissolution study of acyclovir solubilized using various solubilizers
Type: physicochemical
Description: A solubilizing agent was melted in a container and a drug was added and mixed intimately and cooled to room temperature. The mass was sifted through an appropriate sieve to get a uniform blend. A blend of the drug was prepared using polyethylene glycol 6000, Lutrol F127 and Gelucire (50/13). Solid dispersion of the drug with various solubilizing agents like polyethylene glycol 6000, Lutrol F127 and Gelucire 50/13 were studied for their solubility in 900 ml distilled water. […] Also with Lutrol in ratio (1:0.5 to 1:2) a three-fold increase in instantaneous solubility was observed. These samples were taken for dissolution study and the result obtained are provided in Table 3 hereunder and graphically depicted in Figure-I: […]

## Nc1nc2c(ncn2COCCO)c(=O)[nH]1 [Acyclovir as is, Acyclovir]
0 min
  % drug dissolved: 0%
5 min
  % drug dissolved: 16.03%
10 min
  % drug dissolved: 19.58%
15 min
  % drug dissolved: 24.09%
20 min
  % drug dissolved: 29.34%
30 min
  % drug dissolved: 33.89%
45 min
  % drug dissolved: 47.11%
60 min
  % drug dissolved: 53.78%
90 min
  % drug dissolved: 68.87%
120 min
  % drug dissolved: 75.40%
